{"source": "paper PMC7503713", "about": "“GANT61 Reduces Hedgehog Molecule (GLI1) Expression and Promotes Apoptosis in Metastatic Oral Squamous Cell Carcinoma Cells” (International Journal of Molecular Sciences, 2020)", "type_in_all_cases": "cell-based, human", "key": {"CAL27": {"system": "CAL27", "assay": "alamarBlue cytotoxicity assay, CAL27", "experimental": "To assess the cytotoxicity of the GLI inhibitor GANT61 (Sigma-Aldrich, St. Louis, MO, USA) in tumor and non-tumor cell lines, an alamarBlue assay (Sigma-Aldrich Chemical Co, St. Louis, MO, USA) was performed after 72 h of exposure to the inhibitor, as described by Ahmed et al., 1994 [46]. Cells were distributed on 96-well plates at a density of 7 × 10^4 cells/mL for adhered cells, and 3 × 10^5 cells/mL for cells in suspension. All tested compounds were dissolved in DMSO, added to wells containing 100 µL of cells in complete medium, and then incubated for 72 h. Eight concentrations of GANT61 (0.19 to 50 µg/mL), Doxorubicin (Laboratory IMA S.A.I.C., Buenos Aires, Argentina), and 5-Fluorouracil (5-FU, Sigma-Aldrich, St. Louis, MO, USA), both used as positive controls at concentrations ranging from 0.03 to 5 µg/mL, were added to respective wells. Cells treated with the vehicle (0.5% DMSO) used to dilute the tested compounds were used as negative controls. Before the end of the incubation period (4 h for cell lines and 24 h for PBMCs), 20 µL of alamarBlue stock solution (resazurin, Sigma-Aldrich, St. Louis, MO, USA) was added to each well. Absorbance was measured at 570 nm (reduced) and 595 nm (oxidized) wavelengths, using a Spectramax 190 plate reader (Molecular Devices; Sunnyvale, CA, USA).\nStatistical analyses were performed, using GraphPad Prism v. 6.03 (GraphPad Software, Inc., San Diego, USA). Data were analyzed according to distribution along the normal Gaussian curve. IC50 values were obtained through non-linear regression, using results from three independent experiments carried out in duplicate. Differences between groups resulting from in vitro assays were evaluated by ANOVA (analysis of variance) testing, followed by the Student–Newman–Keuls test. This study considered a level of significance, corresponding to alpha (α) or “p” value, when results were less than or equal to 5%."}, "CAF 1": {"system": "CAF 1", "assay": "alamarBlue cytotoxicity assay, cancer-associated fibroblasts CAF 1", "conditions": "CAF 1, alamarBlue, 72 h of incubation", "experimental": "Two cancer-associated fibroblast populations (CAF1 and CAF2) were obtained as described by Sobral et al. (2011), from fragments of squamous cell carcinoma of the tongue that were removed from patients seen at the UNICAMP School of Dentistry in Piracicaba, São Paulo, Brazil.\nSpecimens were washed with PBS, fragmented, and placed in 25 cm^2 cell culture flasks containing 1 mL of DMEM medium supplemented with 10% FBS and an antibiotic, and then maintained in an incubator, at 37 °C, under 5% CO2. Cell growth was monitored daily, and the medium was replaced every 2–3 days. […] Type I collagen production as assessed by ELISA was also used as a marker of myofibroblast activity. Both CAF1 and CAF2 primary populations were maintained for a maximum of 12 passages, with CAF phenotype maintenance evaluated through immunocytochemical staining for the α-SMA antibody after each two passages. […]\nTo assess the cytotoxicity of the GLI inhibitor GANT61 (Sigma-Aldrich, St. Louis, MO, USA) in tumor and non-tumor cell lines, an alamarBlue assay (Sigma-Aldrich Chemical Co, St. Louis, MO, USA) was performed after 72 h of exposure to the inhibitor, as described by Ahmed et al., 1994 [46]. […] Absorbance was measured at 570 nm (reduced) and 595 nm (oxidized) wavelengths, using a Spectramax 190 plate reader (Molecular Devices; Sunnyvale, CA, USA). […]"}, "HSC3 cells": {"system": "HSC3 cells", "assay": "Cell cycle and internucleosomal DNA fragmentation by flow cytometry (PI)", "conditions": "for cells in S and G2/M phases: ≥48 h", "experimental": "To study the effects of GANT61 on HSC3 cell viability, cycle, and death patterns, 4 mL of cellular solution (containing 0.7 × 10^5 cells/mL) was placed on 6-well plates and incubated overnight, to allow adhesion. […] For cell cycle analysis, the effects of GANT61 on HSC3 cells were also evaluated after 12 h of treatment. Negative controls were treated with the vehicle (0.2% DMSO) used to dilute the GLI inhibitor, and 5-fluorouracil (5-FU, 17 μM) was used as a positive control. All experiments were carried out in duplicate and repeated no less than three times. Cell viability was determined by the trypan blue exclusion method, in which 90 μL aliquots were collected at several incubation periods, stained with 10 μL trypan blue, and counted in a Neubauer chamber, under optical microscopy, at 20× magnification (Olympus CX41 Olympus, Tokyo, Japan).\nCellular nuclear DNA content was evaluated by flow cytometry, to differentiate among cell cycle phases, using PI (propidium iodide) as a fluorogenic agent. Following incubation with the GLI inhibitor, the supernatant was collected, and wells were washed with saline. Next, cells were trypsinized, then centrifuged (295× g for 5 min) together with the supernatant. Permeabilization was carried out by using a solution (300 µL) containing 0.1% triton X-100, 0.1% sodium citrate and 2 μg/mL of PI and 100 µg/mL RNase in distilled water, placed under dark conditions, at room temperature, for 30 min. Cells were then acquired (10,000 events/sample) and analyzed on a BD LSRFortessa flow cytometer, using BD FACSDiva software version 6.2 (Becton Dickinson Biosciences, San José, CA, USA). Proportions of fragmented internucleosomal DNA and cell cycle phases were determined by using Flowjo software v. 10 (Flowjo LCC, Ashland, OR, USA). Cells in sub-G1 phase were considered to present internucleosomal DNA fragmentation. Cellular debris was omitted from our analysis."}}, "data": [{"smiles": "O=c1[nH]cc(F)c(=O)[nH]1", "note": "[5-FU, 5-fluorouracil]", "values": [{"measurement": "IC50", "setting": "CAL27; Homo sapiens, CAL-27, 72 h of incubation", "result": 30.8, "unit": "µM"}, {"measurement": "IC50", "setting": "CAF 1; Homo sapiens, Fibroblast", "result": "> 192", "unit": "µM"}, {"measurement": "cells in S and G2/M phases", "setting": "HSC3 cells; 5-FU positive control", "result": "significantly lower numbers of cells"}]}, {"smiles": "CN(C)c1ccccc1CN1CCCN(Cc2ccccc2N(C)C)C1c1ccncc1", "note": "[GANT61]", "values": [{"measurement": "IC50", "setting": "CAL27; 72 h of incubation", "result": "> 116", "unit": "µM"}, {"measurement": "IC50", "setting": "CAF 1", "result": 3.67, "unit": "µM"}, {"measurement": "cells in the sub-G0/G1 phase", "setting": "HSC3 cells; 36 µM, 24 and 48 h, vs DMSO 0.2%", "result": "significantly higher numbers of cells"}, {"measurement": "percentage of HSC3 cells in the sub-G0/G1 phase", "setting": "HSC3 cells; 36 µM, 12 h", "result": "significant increase"}, {"measurement": "number of cells in the G0-G1 phase", "setting": "HSC3 cells; 36 µM, from 12 h forward", "result": "significant decrease"}, {"measurement": "cells in S and G2/M phases", "setting": "HSC3 cells; 18 and 36 µM", "result": "significantly lower numbers of cells"}]}]}
